Data published in US8071584B2 (GlaxoSmithKline LLC, priority 2007, dated 2011).

Tested on: human monocyte stimulated cytokine production (TNF-α)
Assay: Monocyte assay (LPS-stimulated TNF-α production)
Format: cell-based
Settings: for IC50: human CD14+ monocytes, 200 ng/mL LPS, 24 hrs, values given as 'about', read-out: pIC50 in the monocyte assay (converted); for inhibition at 0.3 µM: 300 nM, human monocytes, LPS
Protocol: Effect of IKK-β inhibition on human monocyte stimulated cytokine production was assessed as follows: Monocytes were isolated from heparinized whole blood by Ficoll gradient, followed by purification of CD14+ cells using MACS magnetic cell separation beads. Isolated monocytes were then adhered to 96-well culture plates at 1×10^6 cells/mL in RPMI 1640 10% FBS (JRH Biosciences, Lenexa Kans.) for 2 h. Test compounds are added to the wells 30 minutes prior to stimulation with a final vehicle concentration of 0.1% DMSO. Monocytes were activated by the addition of 200 ng/mL endotoxin (LPS; E. coli serotype 026:B6) (Sigma, St. Louis, Mo.) and incubated for 24 hrs at 37 C. Cell-free supernates were analyzed by Alphascreen™ (Perkin Elmer, Waltham, Mass.) for TNF-α using R&D Systems matched pair Abs. Viability of the cells was determined by 10% trypan blue exclusion.

IC50 [nM] | SMILES | inhibition at 0.3 µM [%]
5.01 to 1000 | NC(=O)c1cc(-c2ccc(F)cc2)cc2c(C3CCS(=O)(=O)C3)c[nH]c12 (racemic) [Example 171, (rac)-3-(1,1-Dioxidotetrahydro-3-thienyl)-5-(4-fluorophenyl)-1H-indole-7-carboxamide] | –
5.01 to 1000 | CC(C)[C@H]1C[C@H](c2c[nH]c3c(C(N)=O)cc(-c4ccsc4)cc23)CCS1(=O)=O (racemic) [Example 241, (racemic)-3-[trans-2-(1-Methylethyl)-1,1-dioxidotetrahydro-2H-thiopyran-4-yl]-5-(3-thienyl)-1H-indole-7-carboxamide] | –
– | CC(C)[C@H]1C[C@H](c2c[nH]c3c(C(N)=O)cc(-c4ccccc4)cc23)CCS1(=O)=O (racemic) [Example 242, racemic-3-[(trans)-2-(1-Methylethyl)-1,1-dioxidotetrahydro-2H-thiopyran-4-yl]-5-phenyl-1H-indole-7-carboxamide] | 0 to 100
– | CC(C)[C@H]1CC(c2c[nH]c3c(C(N)=O)cc(-c4ccoc4)cc23)CCS1(=O)=O (mixture of isomers) [Example 243, (mixture of isomers)-5-(3-Furanyl)-3-[trans-2-(1-methylethyl)-1,1-dioxidotetrahydro-2H-thiopyran-4-yl]-1H-indole-7-carboxamide] | 0 to 100
5.01 to 1000 | CC(C)[C@H]1C[C@H](c2c[nH]c3c(C(N)=O)cc(-c4ccco4)cc23)CCS1(=O)=O (racemic) [Example 244, (racemic)-5-(2-Furanyl)-3-[trans-2-(1-methylethyl)-1,1-dioxidotetrahydro-2H-thiopyran-4-yl]-1H-indole-7-carboxamide] | –
5.01 to 1000 | CC(C)[C@H]1C[C@H](c2c[nH]c3c(C(N)=O)cc(-c4cccs4)cc23)CCS1(=O)=O (racemic) [Example 245, (racemic)-3-[trans-2-(1-Methylethyl)-1,1-dioxidotetrahydro-2H-thiopyran-4-yl]-5-(2-thienyl)-1H-indole-7-carboxamide] | –
5.01 to 1000 | CC(C)[C@@H]1C[C@H](c2c[nH]c3c(C(N)=O)cc(-c4ccsc4)cc23)CCS1(=O)=O (racemic) [Example 246, (racemic)-3-[cis-2-(1-Methylethyl)-1,1-dioxidotetrahydro-2H-thiopyran-4-yl]-5-(3-thienyl)-1H-indole-7-carboxamide] | –
5.01 to 1000 | NC(=O)c1cc(-c2cccs2)cc2c([C@H]3CCS(=O)(=O)[C@@H](c4ccccc4)C3)c[nH]c12 (racemic) [Example 249, 3-(1,1-Dioxido-2-cis-phenyltetrahydro-2H-thiopyran-4-yl)-5-(2-thienyl)-1H-indole-7-carboxamide] | –
5.01 to 1000 | NC(=O)c1cc(-c2ccoc2)cc2c([C@H]3CCS(=O)(=O)[C@@H](c4ccccc4)C3)c[nH]c12 (racemic) [Example 250, 3-(1,1-Dioxido-2-cis-phenyltetrahydro-2H-thiopyran-4-yl)-5-(3-furanyl)-1H-indole-7-carboxamide] | –
5.01 to 1000 | NC(=O)c1cc(-c2ccco2)cc2c([C@H]3CCS(=O)(=O)[C@@H](c4ccccc4)C3)c[nH]c12 (racemic) [Example 251, 3-(1,1-Dioxido-2-phenyltetrahydro-2H-thiopyran-4-yl)-5-(2-furanyl)-1H-indole-7-carboxamide] | –
5.01 to 1000 | NC(=O)c1cc(-c2ccccc2)cc2c([C@H]3CCS(=O)(=O)[C@@H](c4ccccc4)C3)c[nH]c12 (racemic) [Example 252, 3-(1,1-Dioxido-2-phenyltetrahydro-2H-thiopyran-4-yl)-5-phenyl-1H-indole-7-carboxamide] | –
5.01 to 1000 | NC(=O)c1cc(-c2ccccc2)cc2c(C3CCS(=O)(=O)CC3)c[nH]c12 [Example 1, 3-(1,1-Dioxidotetrahydro-2H-thiopyran-4-yl)-5-phenyl-1H-indole-7-carboxamide] | –
5.01 to 1000 | N#CCc1ccc(-c2cc(C(N)=O)c3[nH]cc(C4CCS(=O)(=O)CC4)c3c2)cc1 [Example 65, 5-[4-(Cyanomethyl)phenyl]-3-(1,1-dioxidotetrahydro-2H-thiopyran-4-yl)-1H-indole-7-carboxamide] | –
5.01 to 1000 | CC(C)(O)CCc1ccc(-c2cc(C(N)=O)c3[nH]cc(C4CCS(=O)(=O)CC4)c3c2)s1 [Example 66, 3-(1,1-Dioxidotetrahydro-2H-thiopyran-4-yl)-5-[5-(3-hydroxy-3-methylbutyl)-2-thienyl]-1H-indole-7-carboxamide] | –
5.01 to 1000 | CN(C)c1ccc(-c2cc(C(N)=O)c3[nH]cc(C4CCS(=O)(=O)CC4)c3c2)cn1 [Example 67, 5-[6-(Dimethylamino)-3-pyridinyl]-3-(1,1-dioxidotetrahydro-2H-thiopyran-4-yl)-1H-indole-7-carboxamide] | –
5.01 to 1000 | NC(=O)c1cc(-c2ccnc(Cl)c2)cc2c(C3CCS(=O)(=O)CC3)c[nH]c12 [Example 68, 5-(2-Chloro-4-pyridinyl)-3-(1,1-dioxidotetrahydro-2H-thiopyran-4-yl)-1H-indole-7-carboxamide] | –

IC50 [nM] | SMILES | inhibition at 0.3 µM [%]
5.01 to 1000 | NC(=O)c1cc(-c2ccc3c(c2)CCO3)cc2c(C3CCS(=O)(=O)CC3)c[nH]c12 [Example 69, 5-(2,3-Dihydro-1-benzofuran-5-yl)-3-(1,1-dioxidotetrahydro-2H-thiopyran-4-yl)-1H-indole-7-carboxamide] | –
– | NC(=O)c1cc(-c2csc(CN3CCC3)c2)cc2c(C3CCS(=O)(=O)CC3)c[nH]c12 [Example 70, 5-[5-(1-Azetidinylmethyl)-3-thienyl]-3-(1,1-dioxidotetrahydro-2H-thiopyran-4-yl)-1H-indole-7-carboxamide] | 0 to 100
5.01 to 1000 | COCCN(C)Cc1cc(-c2cc(C(N)=O)c3[nH]cc(C4CCS(=O)(=O)CC4)c3c2)cs1 [Example 71, 3-(1,1-Dioxidotetrahydro-2H-thiopyran-4-yl)-5-[5-({methyl[2-(methyloxy)ethyl]amino}methyl)-3-thienyl]-1H-indole-7-carboxamide] | –
5.01 to 1000 | NC(=O)c1cc(-c2csc(CN3CCCCCC3)c2)cc2c(C3CCS(=O)(=O)CC3)c[nH]c12 [Example 72, 3-(1,1-Dioxidotetrahydro-2H-thiopyran-4-yl)-5-[5-(hexahydro-1H-azepin-1-ylmethyl)-3-thienyl]-1H-indole-7-carboxamide] | –
5.01 to 1000 | CN(C)Cc1cc(-c2cc(C(N)=O)c3[nH]cc(C4CCS(=O)(=O)CC4)c3c2)cs1 [Example 73, 5-{5-[(Dimethylamino)methyl]-3-thienyl}-3-(1,1-dioxidotetrahydro-2H-thiopyran-4-yl)-1H-indole-7-carboxamide] | –
5.01 to 1000 | CC(C)N(C)Cc1cc(-c2cc(C(N)=O)c3[nH]cc(C4CCS(=O)(=O)CC4)c3c2)cs1 [Example 74, 3-(1,1-Dioxidotetrahydro-2H-thiopyran-4-yl)-5-(5-{[methyl(1-methylethyl)amino]methyl}-3-thienyl)-1H-indole-7-carboxamide] | –
5.01 to 1000 | CCN(C)Cc1cc(-c2cc(C(N)=O)c3[nH]cc(C4CCS(=O)(=O)CC4)c3c2)cs1 [Example 75, 3-(1,1-Dioxidotetrahydro-2H-thiopyran-4-yl)-5-(5-{[ethyl(methyl)amino]methyl}-3-thienyl)-1H-indole-7-carboxamide] | –
5.01 to 1000 | CCN(CC)Cc1cc(-c2cc(C(N)=O)c3[nH]cc(C4CCS(=O)(=O)CC4)c3c2)cs1 [Example 76, 5-{5-[(diethylamino)methyl]-3-thienyl}-3-(1,1-dioxidotetrahydro-2H-thiopyran-4-yl)-1H-indole-7-carboxamide] | –
– | CN(CCOC(C)(C)C)Cc1cc(-c2cc(C(N)=O)c3[nH]cc(C4CCS(=O)(=O)CC4)c3c2)cs1 [Example 77, 5-(5-{[{2-[(1,1-Dimethylethyl)oxy]ethyl}(methyl)amino]methyl}-3-thienyl)-3-(1,1-dioxidotetrahydro-2H-thiopyran-4-yl)-1H-indole-7-carboxamide] | 0 to 100
5.01 to 1000 | CNCc1cccc(-c2cc(C(N)=O)c3[nH]cc(C4CCS(=O)(=O)CC4)c3c2)c1 [Example 78, 3-(1,1-Dioxidotetrahydro-2H-thiopyran-4-yl)-5-{3-[(methylamino)methyl]phenyl}-1H-indole-7-carboxamide] | –
5.01 to 1000 | CN(C)Cc1cccc(-c2cc(C(N)=O)c3[nH]cc(C4CCS(=O)(=O)CC4)c3c2)c1 [Example 79] | –
5.01 to 1000 | CC(C)[C@H](C)NCc1cccc(-c2cc(C(N)=O)c3[nH]cc(C4CCS(=O)(=O)CC4)c3c2)c1 [Example 80, 5-[3-({[(1S)-1,2-Dimethylpropyl]amino}methyl)phenyl]-3-(1,1-dioxidotetrahydro-2H-thiopyran-4-yl)-1H-indole-7-carboxamide] | –
5.01 to 1000 | NC(=O)c1cc(-c2ccc(S(=O)(=O)N3CCC3)s2)cc2c(C3CCS(=O)(=O)CC3)c[nH]c12 [Example 81, 5-[5-(1-Azetidinylsulfonyl)-2-thienyl]-3-(1,1-dioxidotetrahydro-2H-thiopyran-4-yl)-1H-indole-7-carboxamide] | –
5.01 to 1000 | NC(=O)c1cc(-c2ccc3[nH]ncc3c2)cc2c(C3CCS(=O)(=O)CC3)c[nH]c12 [Example 82, 3-(1,1-Dioxidotetrahydro-2H-thiopyran-4-yl)-5-(1H-indazol-5-yl)-1H-indole-7-carboxamide] | –
> 1000 | NC(=O)c1cc(-c2nc(Br)cs2)cc2c(C3CCS(=O)(=O)CC3)c[nH]c12 [Example 83, 5-(4-Bromo-1,3-thiazol-2-yl)-3-(1,1-dioxidotetrahydro-2H-thiopyran-4-yl)-1H-indole-7-carboxamide] | –
5.01 to 1000 | NC(=O)c1cc(-c2csc(CCCO)c2)cc2c(C3CCS(=O)(=O)CC3)c[nH]c12 [Example 84, 3-(1,1-Dioxidotetrahydro-2H-thiopyran-4-yl)-5-[5-(3-hydroxypropyl)-3-thienyl]-1H-indole-7-carboxamide] | –
